Measured values from patent US20240226100A1, “CONTROL OF PROTEIN EXPRESSION WITH TMP-PROTAC COMPOUNDS” (THE TRUSTEES OF THE UNIVERSITY OF PENNSYLVANIA, priority 2021, published 2024).

How the values were obtained:
[1] = test system: eDHFR-YFP; experiment: Time and dose-dependent degradation of YFP in Jurkat-DYL / Jurkat eDHFR-YFP+ cells, flow cytometry; assay type: cell-based, Escherichia coli
Protocol: Likewise, Jurkat eDHFR-YFP (Jurkat^eDHFR-YFP+) cells are seeded in clear (Falcon) 12-well plates (3×10^5 cells/well) in complete media. […]

[2] = test system: eDHFR-Luc; experiment: Degradation of luciferase in HEK293T-DL cells, luminescence; assay type: cell-based, Escherichia coli; conditions: 12 and 24 h, varying doses
[3] = test system: IFNγ; experiment: Cytokine release assay, IFNγ ELISA of killing assay supernatant; assay type: cell-based, human; conditions: for T cell IFNγ release / secretion: supernatant of killing assay, 100 nM compound
Protocol: The concentration of TNF-α and IFN-g in the supernatants following killing assay was determined by ELISA.

[4] = test system: FAP CAR-eDHFR fusion protein; experiment: CAR downregulation in Jurkat cells expressing FAP CAR-eDHFR fusion protein, flow cytometry; assay type: cell-based, Escherichia coli; conditions: serial time points
Text: Data plotted as raw CAR stain fluorescence is shown in the left panel and percent of maximum CAR expression is shown in the right panel.

[5] = test system: eDHFR-YFP; experiment: Degradation of eDHFR-YFP in HEK293T eDHFR-YFP+ cells, Western blot with anti-YFP antibody; assay type: cell-based, Escherichia coli; conditions: 100 nM, 24 h
Protocol: HEK293T eDHFR-YFP (HEK293T^eDHFR-YFP+) and OVCAR8 eDHFR-luc (OVCAR8^eDHFR-luc+) cells are prepared in clear (Falcon) 6-well plates (5×10^5 cells/well) and cultured in complete media. Compound 7c is solubilized in 100% DMSO to 10 mM. 10 mM 7c is serially diluted in sterile water accordingly and each dose administered to cells in fresh media at equal volume, such that the final concentration of DMSO in cell media is <1%. Once incubation with drug is completed, media is removed by vacuum, cells are washed with phosphate-buffered saline (PBS), trypsonized at 37° C., quenched with media, and centrifuged (Thermo Scientific Sorvall Legend X1R) at 1000 RPM for 5 minutes. Media and cell debris are removed by vacuum.
Once cells are isolated by centrifugation (Thermo Scientific Sorvall Legend X1R), they are solubilized in radioimmunoprecipitation assay (RIPA) lysis buffer with protease inhibitor. Cell lysate is incubated on ice for 30 minutes, sonicated, then centrifuged (Thermo Scientific Sorvall Legend Micro 21R) at 14,800 RPM for 10 minutes. Supernatant is removed and transferred to a new Eppendorf tube.
Using Thermo Scientific bicinchoninic acid (BCA) assay kit, total cell protein is quantified and compared to bovine serum albumin (BSA) standards ranging from 10 to 0.625 mg/mL. Cell lysate is aliquoted into a 96-well clear plate (Falcon) and mixed with reagent and shaken at 37° C. for 30 minutes. Samples are analyzed by plate reader (ThermoFisher Varioskan Plusplate), where absorbance is measured at […]. A calibration curve is developed, and samples are prepared to equal mass (mg) of total protein for gel electrophoresis.
Cell lysate is prepared by mixing with 4 uL of loading dye and PBS to give equal total protein and equal total volume across all samples. Each sample is loaded into a NuPage gel (4-12% Bis-tris) and developed in NuPage MES Running Buffer. Once complete, the gel is removed and prepared for protein transfer to membrane. […]

[6] = test system: eDHFR-YFP; experiment: Washout experiment, eDHFR-YFP recovery in HEK293T eDHFR-YFP+ cells, Western blot; assay type: cell-based, Escherichia coli; conditions: 100 nM 7c, washed twice with PBS
Protocol: HEK293T^eDHFR-YFP+ cells were seeded in a clear (Falcon) 12-well plate (3×10^5 cells/well) in complete media. The next day, cells were incubated with 100 nM 7c for 24 h in complete media. Media was removed by vacuum, cells were gently washed with 1 mL PBS 2×, then cell media was replenished. Next, cells were isolated +0 to 24 h after washing and prepared for Western blot analysis.
Protein degradation is reversed in as early as 4 h after drug removal from cell media.

[7] = test system: eDHFR-Lck fusion protein; experiment: Dose response in HEK293T eDHFR-Lck cells, Western blot; assay type: cell-based, Escherichia coli; conditions: 24 h
[8] = test system: FAP CAR-eDHFR direct fusion (DF); experiment: Washout kinetic assay of CAR expression in primary human FAP-eDHFR DF CAR T cells; assay type: cell-based; conditions: 100 nM, washout after 24 h
Protocol: Following a 24 hour incubation with TMP-POM 7c, the remaining cells were washed multiple times with […] (Corning) to remove the drug, returned to culture in a new 12-well plate, and then again sampled serially at different time points following the wash (3, 6, 24, 48, and 72 hours post-washout). All cells were stained for CAR and fixed in 4% following sampling, and were analyzed on a flow cytometer (LSR II, BD Biosciences).
Following 24-hour incubation with TMP-POM 7c, the cells were washed multiple times to remove the drug (red arrow), seeded on a new plate, and then again sampled serially following the drug washout. All cells were stained for CAR and fixed in 4% following sampling.

[9] = test system: FAP-eDHFR DF CAR T cells; experiment: In vitro killing assay of FAP-eDHFR DF CAR T cells against I45 huFAP-Luc target cells

SMILES: COc1cc(Cc2cnc(N)nc2N)cc(OC)c1OCCCC(=O)NCCOCCOCCNc1cccc2c1C(=O)N(C1CCC(=O)NC1=O)C2=O (centres unmarked) [Compound 7c, 4-(4-((2,4-diaminopyrimidin-5-yl)methyl)-2,6-dimethoxyphenoxy)-N-(2-(2-(2-((2-(2,6-dioxopiperidin-3-yl)-1,3-dioxoisoindolin-4-yl)amino)ethoxy)ethoxy)ethyl)butanamide]
- YFP remaining, % of maximum (no drug control) ([1]; Jurkat eDHFR-YFP+, as early as 4 h): 20 % of maximum
- degradation of YFP (eDHFR fusion protein) ([1]; Jurkat-DYL, 4, 8 and 18 h incubation, varying doses): degrade eDHFR fusion proteins to low/no functional expression
- degradation of luciferase [2]: degraded
- IFNγ secretion across concentrations ([3]; different concentrations, 10:1 E:T): inhibition of CAR T cell signaling
- T cell IFNγ release / secretion [3]: inhibits
- T cell IFNγ release / secretion ([3]; listed as TMP-POM 7c): inhibition of CAR T cell signaling
- degradation of CAR molecules from the surface of Jurkat cells [4]: leads to degradation of CAR molecules from the surface of Jurkat cells
- eDHFR-YFP degradation at 100 nM [5]: causes eDHFR-YFP to degrade
- time after drug removal at which protein degradation is reversed [6]: ≤ 4 h
- concentration of optimal degradation of eDHFR-Lck fusion protein [7]: 97 nM
- time following washout for CAR expression to return to baseline [8]: ~72 h
- time following washout for CAR expression to start recovering [8]: around 24 hours
- cytotoxic function of FAP-eDHFR CAR T cells against FAP-expressing target cells ([9]; CAR T cells pre-incubated 24 h with 100 nM compound, varying E:T ratios): inhibition of their cytotoxic function
- cytotoxic activity of FAP-eDHFR DF CAR T cells across concentrations ([9]; pre-incubated overnight at different concentrations, 10:1 E:T): tunable in a dose-dependent manner
